Measurements taken from patent US20240317777A1, “NOVEL MACROCYCLIC AMINOPYRAZOLE COMPOUNDS AS CDK2 INHIBITORS” (Accutar Biotechnology Inc., priority 2023, published 2024).

Experiments:
CDK4-CYCLIN D1 = CDK4-CYCLIN D1 (Homo sapiens, UniProt P11802); experiment: CDK protein kinase inhibition by ADP-Glo assay, CDK4-CYCLIN D1; format: biochemical; settings: for IC50: Table 37, recombinant CDK kinase, read-out: CDK4-CYCLIND1, IC50; for CDK2 Fold selectivity against CDK4: Table 38, fold selectivity for CDK2 over CDK4, recombinant CDK kinases
Protocol: (§1) CDK Protein Kinase Inhibition by ADP-Glo Assay
(§2) This ADP-Glo assay measures ADP formed from a kinase reaction and indirectly quantifies the phosphorylation of peptide substrates by the CDK/cyclin protein complexes. The typical assays were carried out in Nanosyn by combining kinase/cyclin complexes, substrates, compounds, and cofactors (ATP and Mg2+) in a well of a 384-well microtiter plate (Corning 3824) and incubating at 22° C. (Table 1). At the end of the incubation, the reaction is quenched, and conversion is detected by luminescence using the Promega ADP-Glo™ Kinase Assay kit (catalog #V9102).
(§3) Final assay buffer mixture contains: • 100 mM HEPES, pH 7.5 • 0.1% BSA • 0.01% Triton X-100 • 1 mM DTT • 5 mM MgCl2 • 10 μM Sodium Orthovanadate • 100 μM Beta-Glycerophosphate • 1000 μM Ultra Pure ATP (provided in the Promega ADP-Glo™ Kinase Assay kit) • 1% DMSO (from compound)
(§4) Upon completion, 5 μL of the ADP Glo reagent was added to each well and the plate was further incubated at room temperature for 45 minutes. 10 uL of the Kinase Detection Reagent was subsequently added to each well. After 10 minutes of incubation, the plate was read and analyzed on the BioTek Synergy microplate reader using BioTek Gen5 software.

CDK1-CYCLIN B = CDK1-CYCLIN B (Homo sapiens, UniProt P06493); experiment: CDK protein kinase inhibition by ADP-Glo assay, CDK1-CYCLIN B; format: biochemical; settings: for IC50: Table 37, recombinant CDK kinase, read-out: CDK1-CYCLINB, IC50; for CDK2 Fold selectivity against CDK1: Table 38, fold selectivity for CDK2 over CDK1, recombinant CDK kinases
Protocol: as §1, §2, §3, §4

CDK2-CYCLIN E1 = CDK2-CYCLIN E1 (Homo sapiens, UniProt P24941); experiment: CDK protein kinase inhibition by ADP-Glo assay, CDK2-CYCLIN E1; format: biochemical; settings: Table 37; recombinant CDK kinase; read-out: CDK2-CYCLINE, IC50
Protocol: as §1, §2, §3, §4

CDK9-CYCLIN T1 = CDK9-CYCLIN T1 (Homo sapiens, UniProt P50750); experiment: CDK protein kinase inhibition by ADP-Glo assay, CDK9-CYCLIN T1; format: biochemical; settings: for IC50: Table 37, recombinant CDK kinase, read-out: CDK9-CYCLINT1, IC50; for CDK2 Fold selectivity against CDK9: Table 38, fold selectivity for CDK2 over CDK9, recombinant CDK kinases
Protocol: as §1, §2, §3, §4

CDK6-CYCLIN D3 = CDK6-CYCLIN D3 (Homo sapiens, UniProt Q00534); experiment: CDK protein kinase inhibition by ADP-Glo assay, CDK6-CYCLIN D3; format: biochemical; settings: for IC50: Table 37, recombinant CDK kinase, read-out: CDK6-CYCLIND3, IC50; for CDK2 Fold selectivity against CDK6: Table 38, fold selectivity for CDK2 over CDK6, recombinant CDK kinases
Protocol: as §1, §2, §3, §4

[1] = tested on: Phospho-Rb (Ser807/811) in OVCAR3 cells; experiment: Phospho-Rb expression inhibition in OVCAR3 cells quantified by In Cell Western; format: cell-based; settings: Homo sapiens, OVCAR-3, 24 hours, read-out: OVCAR-3 pRb IC50
How it was run: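 In-cell western: after 24 h compound exposure at 37° C, fixed OVCAR3 cells co-stained for pRb Ser807/811 (800 nm channel) and total Rb (680 nm channel), imaged by LI-COR Odyssey.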

[2] = tested on: CCNE1-amplified OVCAR3 cells; experiment: Cell growth inhibition of CCNE1-amplified OVCAR3 cells (CellTiter-Glo); format: cell-based; settings: Homo sapiens, OVCAR-3, 144 h, 6 days
How it was run: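 Growth read-out was CellTiter-Glo luminescence, taken after 10 min at room temperature at the end of a 6-day compound exposure at 37 °C. Compounds were diluted from DMSO stocks across various concentrations.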

CCNE1-normal SKOV3 cells = experiment: Cell growth inhibition of CCNE1-normal SKOV3 cells (CellTiter-Glo); format: cell-based; settings: Homo sapiens, SK-OV-3, 144 h, 6 days
Protocol: Cell Growth Inhibition of CCNE1-Normal SKOV3 Cells
SKOV3 cells were obtained from American Type Culture Collection (ATCC, HTB-77). SKOV3 cells were seeded in 96-well plates at 1000 cells/well in 90 μl of RPM11640 growth medium containing 10% FBS and 1% Penicillin Streptomycin, and then incubated at 37° C. overnight. The following day, the test compound was administered to the cells by using 1000× compound stock solution prepared in DMSO at various concentrations. 1000× compound stock solution was first diluted in culturing medium to 10x, then 10 uL compound medium was added to each well in the cell plates. After administration of the compound, the cells were then incubated at 37° C. for 6 days. Upon completion, the plates were equilibrated at room temperature for approximately 10 minutes. 100 ul of CellTiter-Glo® Reagent (Promega) was added to each well. The plates were then incubated at room temperature for 10 minutes and luminescence was recorded by EnSpire plate reader (PerkinElmer).

Chain of CDK4-CYCLIN D1 (P11802 whole entry): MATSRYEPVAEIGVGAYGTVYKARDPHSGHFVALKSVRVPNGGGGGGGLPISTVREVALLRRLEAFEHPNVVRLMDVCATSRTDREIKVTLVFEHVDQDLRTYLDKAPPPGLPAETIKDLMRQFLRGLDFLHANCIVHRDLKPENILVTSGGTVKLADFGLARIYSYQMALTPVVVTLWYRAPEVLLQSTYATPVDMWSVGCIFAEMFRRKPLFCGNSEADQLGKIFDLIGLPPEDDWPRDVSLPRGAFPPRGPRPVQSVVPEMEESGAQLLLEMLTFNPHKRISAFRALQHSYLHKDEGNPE
Chain of CDK4-CYCLIN D1 (P24385 whole entry partner): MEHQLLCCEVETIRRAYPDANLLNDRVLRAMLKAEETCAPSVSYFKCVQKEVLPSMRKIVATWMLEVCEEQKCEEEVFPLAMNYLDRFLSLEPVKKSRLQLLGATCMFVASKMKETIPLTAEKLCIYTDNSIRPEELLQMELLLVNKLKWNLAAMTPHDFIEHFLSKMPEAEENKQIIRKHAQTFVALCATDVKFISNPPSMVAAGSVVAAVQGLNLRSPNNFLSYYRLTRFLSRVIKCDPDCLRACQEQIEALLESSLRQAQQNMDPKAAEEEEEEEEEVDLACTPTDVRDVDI
Chain of CDK1-CYCLIN B (P06493 whole entry): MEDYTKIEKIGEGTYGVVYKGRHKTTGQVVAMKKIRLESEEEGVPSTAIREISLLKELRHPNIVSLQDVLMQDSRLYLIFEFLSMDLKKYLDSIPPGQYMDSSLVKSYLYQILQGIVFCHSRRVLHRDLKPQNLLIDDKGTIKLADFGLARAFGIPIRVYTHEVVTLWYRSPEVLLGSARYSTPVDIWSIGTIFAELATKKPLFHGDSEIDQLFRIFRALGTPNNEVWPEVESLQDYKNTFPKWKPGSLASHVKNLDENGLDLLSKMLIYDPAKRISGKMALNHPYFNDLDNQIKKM
Chain of CDK1-CYCLIN B (P14635 whole entry partner): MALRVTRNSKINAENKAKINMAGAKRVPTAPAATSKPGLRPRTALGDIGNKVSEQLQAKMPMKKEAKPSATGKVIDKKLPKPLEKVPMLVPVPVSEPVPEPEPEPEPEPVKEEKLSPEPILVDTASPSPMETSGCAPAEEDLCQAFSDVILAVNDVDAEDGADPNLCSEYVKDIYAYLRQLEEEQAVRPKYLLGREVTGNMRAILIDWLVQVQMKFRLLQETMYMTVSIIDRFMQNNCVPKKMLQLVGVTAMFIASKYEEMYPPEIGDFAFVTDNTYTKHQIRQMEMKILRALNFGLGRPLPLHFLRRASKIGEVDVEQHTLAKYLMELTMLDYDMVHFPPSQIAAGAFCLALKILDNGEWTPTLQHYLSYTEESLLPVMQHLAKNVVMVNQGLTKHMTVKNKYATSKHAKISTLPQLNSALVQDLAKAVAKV
Chain of CDK6-CYCLIN D3 (Q00534 whole entry): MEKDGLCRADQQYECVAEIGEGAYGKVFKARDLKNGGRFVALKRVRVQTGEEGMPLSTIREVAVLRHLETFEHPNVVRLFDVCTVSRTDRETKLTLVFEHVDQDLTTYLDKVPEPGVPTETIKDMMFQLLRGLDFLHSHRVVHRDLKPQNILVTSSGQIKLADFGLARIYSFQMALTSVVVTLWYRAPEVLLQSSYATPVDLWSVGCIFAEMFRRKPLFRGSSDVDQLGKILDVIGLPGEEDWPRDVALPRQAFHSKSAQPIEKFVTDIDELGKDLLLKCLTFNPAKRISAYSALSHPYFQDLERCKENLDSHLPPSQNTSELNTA
Chain of CDK6-CYCLIN D3 (P30281 whole entry partner): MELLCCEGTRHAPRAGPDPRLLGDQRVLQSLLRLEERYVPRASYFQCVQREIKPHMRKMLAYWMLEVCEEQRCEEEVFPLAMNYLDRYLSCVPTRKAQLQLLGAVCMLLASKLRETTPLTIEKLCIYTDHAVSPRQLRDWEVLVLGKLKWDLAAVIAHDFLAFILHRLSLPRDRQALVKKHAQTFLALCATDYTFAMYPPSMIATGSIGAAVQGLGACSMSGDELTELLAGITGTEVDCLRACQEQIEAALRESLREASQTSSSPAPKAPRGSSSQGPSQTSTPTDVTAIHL
Chain of CDK9-CYCLIN T1 (P50750 whole entry): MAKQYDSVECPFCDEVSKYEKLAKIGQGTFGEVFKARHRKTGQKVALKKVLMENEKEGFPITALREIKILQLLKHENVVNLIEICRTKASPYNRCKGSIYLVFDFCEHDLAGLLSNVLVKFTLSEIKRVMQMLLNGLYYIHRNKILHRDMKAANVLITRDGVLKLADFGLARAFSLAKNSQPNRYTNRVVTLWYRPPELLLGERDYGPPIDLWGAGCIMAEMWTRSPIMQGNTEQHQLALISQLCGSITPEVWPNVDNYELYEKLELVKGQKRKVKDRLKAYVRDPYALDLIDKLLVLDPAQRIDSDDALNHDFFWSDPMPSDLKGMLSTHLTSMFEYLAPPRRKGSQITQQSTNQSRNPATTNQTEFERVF
Chain of CDK9-CYCLIN T1 (O60563 whole entry partner): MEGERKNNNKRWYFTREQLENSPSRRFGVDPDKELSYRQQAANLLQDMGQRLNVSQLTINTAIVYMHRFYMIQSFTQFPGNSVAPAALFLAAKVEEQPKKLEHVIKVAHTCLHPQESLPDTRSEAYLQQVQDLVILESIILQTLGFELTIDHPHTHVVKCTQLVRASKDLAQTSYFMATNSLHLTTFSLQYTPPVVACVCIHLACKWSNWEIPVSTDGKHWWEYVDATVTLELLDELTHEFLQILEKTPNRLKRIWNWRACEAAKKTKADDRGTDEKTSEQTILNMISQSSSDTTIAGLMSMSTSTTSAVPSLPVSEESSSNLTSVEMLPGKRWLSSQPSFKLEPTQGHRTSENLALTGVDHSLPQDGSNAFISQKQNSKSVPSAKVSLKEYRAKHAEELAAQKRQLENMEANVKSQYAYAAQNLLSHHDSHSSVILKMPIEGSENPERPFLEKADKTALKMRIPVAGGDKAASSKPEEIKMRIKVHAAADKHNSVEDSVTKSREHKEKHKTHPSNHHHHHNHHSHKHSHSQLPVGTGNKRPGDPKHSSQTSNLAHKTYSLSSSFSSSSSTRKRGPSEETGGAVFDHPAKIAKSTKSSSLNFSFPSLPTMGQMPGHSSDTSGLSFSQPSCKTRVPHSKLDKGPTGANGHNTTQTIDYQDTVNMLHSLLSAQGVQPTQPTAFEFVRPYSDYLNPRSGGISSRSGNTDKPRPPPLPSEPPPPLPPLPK

| IC50 (CDK4-CYCLIN D1) [nM] | CDK2 Fold selectivity against CDK4 (CDK4-CYCLIN D1) | IC50 (CDK1-CYCLIN B) [nM] | CDK2 Fold selectivity against CDK1 (CDK1-CYCLIN B) | IC50 (CDK2-CYCLIN E1) [nM] | IC50 (CDK9-CYCLIN T1) [nM] | CDK2 Fold selectivity against CDK9 (CDK9-CYCLIN T1) | IC50 (CDK6-CYCLIN D3) [nM] | CDK2 Fold selectivity against CDK6 (CDK6-CYCLIN D3) | IC50 [1] [nM] | IC50 [2] [nM] | Compound | IC50 (CCNE1-normal SKOV3 cells) [nM] |
| --- | --- | --- | --- | --- | --- | --- | --- | --- | --- | --- | --- | --- |
| 10 to 50 | E (E, <20) | 10 to 50 | E (E, <20) | ≤ 10 | 100 to 500 | C (C, >50 and ≤100) | 10 to 50 | E (E, <20) | 2 to 10 | 10 to 50 | O=C1NC2CC(COc3cc(ccn3)Nc3cc(n[nH]3)C3C[C@@H](F)[C@H](C3)O1)C2 [Compound 229, (1^1R,1^3S,1^4R,7^1S,7^3R,Z)-1^4-fluoro-2^1H-5,10-dioxa-3,8-diaza-4(4,2)-pyridina-2(3,5)-pyrazola-1(1,3)-cyclopentana-7(1,3)-cyclobutanacyclodecaphan-9-one] |  |
| 100 to 500 | B (B, >100 and ≤500) | 50 to 100 | E (E, <20) | ≤ 10 | > 500 | B (B, >100 and ≤500) | 100 to 500 | B (B, >100 and ≤500) | 10 to 50 | 10 to 50 | O=C1NC2CC(COc3cc(ccn3)Nc3[nH]nc(c3F)C3C[C@@H](F)[C@H](C3)O1)C2 [Compound 231, (1^1R,1^3S,1^4R,7^1S,7^3R,E)-1^4,2^4-difluoro-2^1H-5,10-dioxa-3,8-diaza-4(4,2)-pyridina-2(3,5)-pyrazola-1(1,3)-cyclopentana-7(1,3)-cyclobutanacyclodecaphan-9-one] |  |
| 10 to 50 | E (E, <20) | 10 to 50 | E (E, <20) | ≤ 10 | 10 to 50 | E (E, <20) | 10 to 50 | E (E, <20) | 10 to 50 | 10 to 50 | O=C1NC2CC(COc3cc(ccn3)Nc3cc(n[nH]3)C3C[C@H](F)[C@@H](C3)O1)C2 [Compound 230, (1^1S,1^3R,1^4S,7^1R,7^3S,Z)-1^4-fluoro-2^1H-5,10-dioxa-3,8-diaza-4(4,2)-pyridina-2(3,5)-pyrazola-1(1,3)-cyclopentana-7(1,3)-cyclobutanacyclodecaphan-9-one] |  |
| 50 to 100 | E (E, <20) | 100 to 500 | E (E, <20) | 10 to 50 | 100 to 500 | E (E, <20) | 100 to 500 | E (E, <20) | 10 to 50 | 50 to 250 | O=C1NC2CC(COc3cc(ccn3)Nc3[nH]nc(c3F)C3C[C@H](F)[C@@H](C3)O1)C2 [Compound 232, (1^1S,1^3R,1^4S,7^1R,7^3S,E)-1^4,2^4-difluoro-2^1H-5,10-dioxa-3,8-diaza-4(4,2)-pyridina-2(3,5)-pyrazola-1(1,3)-cyclopentana-7(1,3)-cyclobutanacyclodecaphan-9-one] |  |
|  |  |  |  |  |  |  |  |  | 10 to 50 | 50 to 250 | O=C1NC2CC(C2)CC(F)(F)c2cc(ccn2)Nc2cc(n[nH]2)[C@H]2CC[C@H](C2)O1 (single isomer, unassigned) [Compound 169, (1^1S,1^3R,7^1R,7^3S,Z)-5,5-difluoro-2^1H-10-oxa-3,8-diaza-4(4,2)-pyridina-2(3,5)-pyrazola-1(1,3)-cyclopentana-7(1,3)-cyclobutanacyclodecaphan-9-one] | > 1250 |
|  |  |  |  |  |  |  |  |  | 10 to 50 | 50 to 250 | O=C1NC2(CCCOc3cc(ccn3)Nc3cc([nH]n3)[C@H]3CC[C@H](C3)O1)CC2 [Compound 33, (1'S,3′R,Z)-spiro[cyclopropane-1 9′-5,12-dioxa-3,10-diaza-4(4,2)-pyridina-2(3,5)-pyrazola-1(1,3)-cyclopentanacyclododecaphan]-11′-one] | > 1250 |
|  |  |  |  |  |  |  |  |  | ≤ 2 | 2 to 10 | O=C1NC2CC(COc3cncc(c3)Nc3cc(n[nH]3)[C@H]3CC[C@H](C3)O1)C2 [Compound 171, (1^1S,1^3R,7^1R,7^3S,Z)-2^1H-5,10-dioxa-3,8-diaza-4(3,5)-pyridina-2(3,5)-pyrazola-1(1,3)-cyclopentana-7(1,3)-cyclobutanacyclodecaphan-9-one] | 250 to 1250 |
|  |  |  |  |  |  |  |  |  | 50 to 250 | > 250 | C[C@H]1CCC2(CC2)NC(=O)O[C@@H]2CC[C@@H](C2)c2cc([nH]n2)Nc2ccnc(c2)O1 [compound 110] | > 1250 |
|  |  |  |  |  |  |  |  |  | 10 to 50 | > 250 | C[C@@H]1NC(=O)O[C@@H]2CC[C@@H](C2)c2cc([nH]n2)Nc2cnnc(c2)OCCC1(F)F [Compound 218, (1^1S,1^3R,9S,Z)-8,8-difluoro-9-methyl-2^1H-5,12-dioxa-3,10-diaza-4(5,3)-pyridazina-2(3,5)-pyrazola-1(1,3)-cyclopentanacyclododecaphan-11-one] | > 1250 |
|  |  |  |  |  |  |  |  |  | ≤ 2 | 2 to 10 | O=C1NC2CC(CCc3cncc(c3)Nc3cc(n[nH]3)[C@H]3CC[C@H](C3)O1)C2 [Compound 141, (1^1S,1^3R,7^1R,7^3R,Z)-2^1H-10-oxa-3,8-diaza-4(3,5)-pyridina-2(3,5)-pyrazola-1(1,3)-cyclopentana-7(1,3)-cyclobutanacyclodecaphan-9-one] | 50 to 250 |
|  |  |  |  |  |  |  |  |  | 50 to 250 | 50 to 250 | C[C@H]1Oc2cncc(c2)Nc2cc(n[nH]2)[C@H]2CC[C@H](C2)OC(=O)N[C@H]2C[C@@H]1C2 [Compound 147, (1^1S,1^3R,7^1S,7^3S,6R,Z)-6-methyl-2^1H-5,10-dioxa-3,8-diaza-4(3,5)-pyridina-2(3,5)-pyrazola-1(1,3)-cyclopentana-7(1,3)-cyclobutanacyclodecaphan-9-one] | > 1250 |
|  |  |  |  |  |  |  |  |  | ≤ 2 | ≤ 2 | C[C@@H]1NC(=O)O[C@@H]2CC[C@@H](C2)c2cc([nH]n2)Nc2cncc(n2)OCCC1(F)F [Compound 219, (1^1S,1^3R,9S,Z)-8,8-difluoro-9-methyl-2^1H-5,12-dioxa-3,10-diaza-4(2,6)-pyrazina-2(3,5)-pyrazola-1(1,3)-cyclopentanacyclododecaphan-11-one] | 10 to 50 |
